What was measured:
Format in all cases: cell-based, human
SJSA-1 = test: Combination treatment with cisplatin or etoposide, MTT, SJSA-1
From the text: (§1) It is well established that radiotherapy and most current forms of chemotherapy cause extensive genetic damage and induction of the p53-dependent apoptotic pathway, which determines the important role of this tumor suppressor protein in cancer therapy. HDM2, on the other hand, as a transcriptional product and negative regulator pf p53, would destabilise p53 and diminish its pro-apoptotic function. Inhibitors of the p53-HDM2 negative feedback loop (e.g. compounds disrupting the p53-HDM2 complex) are expected to synergise with cytotoxic agents for induction of p53 and subsequent apoptosis. […] Both chemotherapeutic agents were used in the concentration range of 100-0.19 μM.

H1299 = test: Combination treatment with cisplatin or etoposide, MTT, H1299
From the text: as §1

[1] = system: AGS, H1299, MCF7 or SJSA1 cells; test: Cell morphology (cell rounding); conditions: five times IC50
From the text: Equal amounts of cell lysate were separated by SDS-PAGE and analysed by immunoblotting using the indicated antibodies. An estimation of the extent of cell rounding is indicated above each lane. The arrow indicates the position of a 85-kDa cleavage product of PARP, indicative of apoptosis. (B) The effect of compound 2 on the levels of the cell cycle proteins in AGS cells (wild-type 53). […] Equal amounts of cell lysate were separated by SDS-PAGE and analysed by immunoblotting using the indicated antibodies. An estimation of the extent of cell rounding is indicated above each lane. (C) The effect of negative control compound (refer Example 10), compound 2, cisplatin, and anisomycin on the levels of key proteins in MCF7 cells. […] Cisplatinum and anisomycin (a transcription inhibitor) treatments were with 50 μM or 37 μM, respectively. Cells were harvested at various time points; afterwards lysates were prepared and separated by SDS-PAGE and analysed by immunoblotting. The proteins detected are indicated. The extent of rounded or floating cells and the percentage viable cells were assessed. […] Equal amounts of cell lysate were separated by SDS-PAGE and analysed by immunoblotting using a range of antibodies. An estimation of the extent of cell rounding is indicated above each lane. […] SJSA1 cells were treated with 5 times [IC50] of compound 2 and collected at the indicated time points. Equal amounts of cell lysate were separated by SDS-PAGE and analysed by immunoblotting using a range of antibodies. An estimation of the extent of cell rounding is indicated above each lane.
Cells were treated with 5 times [IC50] of compound 2 and collected at various time points. The percentage of rounded cells was counted before cells were trypsinised and counted for cell viability using trypan blue.
Cells were lysed and equal amounts were analysed by SDS-polyacrylamide gel electrophoresis (SDS-PAGE) and immunoblotting. […] The reduction in E2F-1 levels correlated with reduction in E2F transcriptional activity as determined by an E2F-dependent luciferase reporter assay (refer Example 6).

[2] = 2 added 6 hours before etoposide
[3] = 2 added prior to the treatment with cisplatin

O=[N+]([O-])c1cc(S(=O)(=O)Nc2ccc(Cl)cc2)sc1Cl [Compound 2, 5-Chloro-4-nitrothiophene-2-sulfonic acid (4-chlorophenyl)-amide]
IC50 of etoposide, fold lower in cells pre-treated with 2 (SJSA-1; [2]): 726 fold | potency increase of cisplatin (SJSA-1; [3]): 357 fold | IC50 (SJSA-1; Homo sapiens, MTT, 72 hours, Table 5, read-out: IC50, agent alone): 14 µM | IC50 of etoposide, fold lower in cells pre-treated with 2 (H1299; [2]): 25 fold | potency increase of cisplatin (H1299; [3]): 16 fold | IC50 (H1299; Homo sapiens, NCI-H1299, MTT, 72 hours, Table 5, read-out: IC50, agent alone): 5.1 µM | cell rounding [1]: Rapid cell rounding was detected in all cell types tested

Source: patent publication US20050215548A1 (Cyclacel Limited, priority 2002, published 2005)
